# Values of other authors in publication PMC6007947, “Sensitivity of pretargeted immunoPET using ^68Ga-peptide to detect colonic carcinoma liver metastases in a murine xenograft model: Comparison with ^18FDG PET-CT” (Oncotarget, 2018).
# Conditions: stated in discussion
# Description: Pretargeting is one way to improve tumor uptake and tumor to normal organ uptake ratios by reducing the molecular size of the radioactive agent and using a non-radiolabeled bispecific antibody, such as TF2. TF2 is a humanized bispecific monoclonal antibody produced by the Dock-and-Lock® technology, containing two anti-CEA Fab fragments and another Fab fragment binding the HSG hapten component of the IMP288 hapten peptide. Compared to previously used bispecific antibodies with a single binding site for the tumor antigen and another for the hapten, this bivalency is expected to increase t ...
substance,measurement,value
"DOTA-D-Tyr-D-Lys(HSG)-D-Glu-D-Lys(HSG)-NH2 [IMP288, DOTA-conjugated tetrapeptide containing two HSG hapten structures]",Clearance from blood,within an hour
